US20190201419A1, “COMPOUND AND METHOD FOR THE TREATMENT AND DIAGNOSIS OF NEURODEGENERATIVE CONDITIONS” (Swansea University, priority 2013, published 2019)

What was measured:
Lxrα = molecular target: T1, Lxrα (Homo sapiens, UniProt Q13133); assay: Lxrα luciferase reporter assay in SN4741 neural cells; format: cell-based, mouse; settings: for Lxrα activation, luciferase activity (fold activation): 10 μM, 24 h
T1 construct: expressed in transfected cells; host or cells: SN4741 mouse neuronal cell line
T1 sequence (Q13133 1-447): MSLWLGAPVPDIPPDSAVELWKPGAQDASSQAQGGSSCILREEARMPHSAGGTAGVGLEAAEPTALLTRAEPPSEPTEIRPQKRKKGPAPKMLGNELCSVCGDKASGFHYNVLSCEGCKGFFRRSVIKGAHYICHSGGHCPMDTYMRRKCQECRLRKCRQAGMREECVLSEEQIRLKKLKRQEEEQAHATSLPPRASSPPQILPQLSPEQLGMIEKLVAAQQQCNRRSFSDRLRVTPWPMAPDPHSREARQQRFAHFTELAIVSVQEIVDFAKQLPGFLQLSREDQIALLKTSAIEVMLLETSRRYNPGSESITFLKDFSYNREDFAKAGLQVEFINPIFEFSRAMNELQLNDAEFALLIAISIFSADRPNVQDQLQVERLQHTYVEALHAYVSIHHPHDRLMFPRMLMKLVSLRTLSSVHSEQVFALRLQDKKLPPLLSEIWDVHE
From the text: (§1) Luciferase Reporter Assay.

Lxrβ = molecular target: T2, Lxrβ (Homo sapiens, UniProt P55055); assay: Lxrβ luciferase reporter assay in SN4741 neural cells; format: cell-based, mouse; settings: SN4741 cells, 10 μM, 24 h
T2 construct: expressed in transfected cells; host or cells: SN4741 mouse neuronal cell line
T2 sequence (P55055 1-460): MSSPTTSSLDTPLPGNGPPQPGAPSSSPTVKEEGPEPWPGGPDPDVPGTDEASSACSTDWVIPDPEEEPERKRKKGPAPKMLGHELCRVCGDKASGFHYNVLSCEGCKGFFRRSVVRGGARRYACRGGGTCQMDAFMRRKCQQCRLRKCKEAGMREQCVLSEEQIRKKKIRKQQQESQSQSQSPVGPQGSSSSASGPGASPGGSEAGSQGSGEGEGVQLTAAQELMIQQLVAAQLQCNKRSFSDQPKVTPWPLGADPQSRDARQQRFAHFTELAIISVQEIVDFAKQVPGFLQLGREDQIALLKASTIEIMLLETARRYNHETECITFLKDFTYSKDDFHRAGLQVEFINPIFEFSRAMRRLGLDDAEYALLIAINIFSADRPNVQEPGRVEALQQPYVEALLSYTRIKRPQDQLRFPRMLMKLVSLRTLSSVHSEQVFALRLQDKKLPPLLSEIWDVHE
From the text: as §1

Islet-1 = Islet-1 expression in Tg[Isl1:GFP] zebrafish embryos; format: in vivo; settings: 10 μM, embryos 48 hpf
Protocol: Quantitative PCR, Total RNA was extracted from SN4741. cells and zebrafish treated with the compounds of interest using the RNeasy Mini Kit (Qiagen), 1 μg was treated with RQ1 RNase-free DNase (Promega) and reverse transcribed using SuperScript II Reverse Transcriptase (invitrogen) and random primers (invitrogen) (RT+reaction). Parallel reactions without reverse transcriptase enzyme were done as a control (RT−reaction), and Sybergreen real-time quantitative PCR assays were performed. Expression levels were obtained by normalization with the Value of the housekeeping gene encoding actin obtained for every sample in parallel assays.
(§2) Zebrafish Strain and Maintenance Zebrafish were raised on a 14/10 h day/night cycle and were kept at 28.5 ° C. Islet-1:GFP transgenic embryos were obtained via natural spawning and staged in hours or days post fertilization (hpf and dpt) according to Kimmel et al). Embryos older than 24 hpf were treated with 0.03% phenylthiourea (PTU) to inhibit pigmentation. MO injections were performed using splice site specific zebrafish lxi MO MO injected embryos were immediately dechorionated and transferred to a 96 well plate and exposed to dimethyl sulfoxide (DMSO) treated or ligand treated medium. Compound Exposure. Islet-1:GFP embryos were collected by natural mating and immediately (at 1 cell stage) dechorionated and transferred to a 96 well plate. Each of the compounds tested were obtained as 10 mM stock and diluted in embryo medium to a final concentration of 10 μM, and 200 μL was added to each well. DMSO or propan-2-ol treated embryo medium was taken as control. Ligand solutions were replaced every 12 h with fresh ligand solution prepared in PTU treated embryo medium. Embryos were collected at 48 hpf, fixed for 4 h at room temperature with 4% paraformaldehyde and then washed and kept in PBST. Immunocytochemistry was performed using an anti-GFP antibody and fluorescence was viewed and photographed using a Zeiss Axioplan compound microscope and a Zeiss Axiocam digital camera.

[1] = tested on: Islet1+ oculomotor neurons; assay: Islet1+ cells in mouse E11.5 brain primary cultures; format: cell-based; settings: wild type cultures
Protocol: Primary Brain Cultures. Brains from E11.5 mice were manually dissected, plated on poly-D-lysine (150,000 cells/cm^2) and grown in serum-free N2 media consisting of 1:1 mixture of F12 and DMEM with 10 ng/mL insulin, 100 μg/mL apo-transferrin, 100 μM putrescine, 20 nM progesterone, 30 nM selenium, 6 mg/mL glucose, and 1 mg/mL BSA. Cells were treated for 3 days in vitro (DIV) with the compounds of interest, fixed with 4% PFA and processed for staining using appropriate antibodies.
Antibodies and Detection Procedures. Cells were fixed in 4% PFA, washed in PBS and blocked in 5% normal goat serum/PBS for 1 h at room temperature. Primary antibodies were diluted in PBS (pH 7.4), 0.3% Triton X-100, 1% BSA and incubations were carried out overnight at +4° C. or at room temperature for 2 h. The antibodies used were anti-:BrdU (1:400; Abeam), Islet-1 (1:100: Developmental Studies Hybridoma Bank), cleaved caspase-3 (Aspt 75) (1:100; Cell Signaling Technology), tyrosine hydroxylase (TH; 1:1000; Pel-Freeze) GABA (1:1,000; Sigma), Bm3a (1:250; Millipore), Nkx6.1 (1:200; Novus Biologicals), choline acetyltransferase (ChAT; 1:500; Millipore) and appropriate secondary antibodies (Jackson ImmunoResearch or Alexa). Cells positive for the corresponding marker were counted directly at the microscope at a magnification of 20×. Cells were counted in every well, in eight consecutive fields (going from one side of the well to the other, passing through the center), in three different wells per experiment and in three different experiments per condition. Random pictures of the wells were taken for every condition to document the result, and representative pictures were subsequently selected to represent the quantitative data. Photos were acquired with a Zeiss Axioplan microscope and a Hamamatsu camera C4742-95 using the Openlab software.

zebrafish embryos = assay: Survival of transgenic zebrafish embryos on compound exposure; format: in vivo
Protocol: as §2

SMILES | Lxrα activation, luciferase activity (fold activation) (Lxrα) | Lxrβ activation, luciferase activity (fold activation) (Lxrβ) | other results
CC(C)CCC[C@@H](C)[C@H]1CC[C@H]2[C@@H]3CC[C@H]4CC(=O)CC[C@]4(C)[C@H]3CC[C@]12C [5α-cholestan-3-one] | None of these compounds showed significant activity | – | –
CC(C)CCC[C@@H](C)[C@H]1CC[C@H]2[C@@H]3CC[C@H]4C[C@@H](O)CC[C@]4(C)[C@H]3CC[C@]12C [5α-cholestan-3β-ol] | None of these compounds showed significant activity | – | –
CC(C)CCC[C@@H](C)[C@H]1CC[C@H]2[C@@H]3[C@H](O)CC4=CC(=O)CC[C@]4(C)[C@H]3C[C@H](O)[C@]12C [7α,12α-diHCO, 7α,12α-Dihydroxycholest-4-en-3-one] | None of these compounds showed significant activity | – | –
CC(CO)CCC[C@@H](C)[C@H]1CC[C@H]2[C@@H]3[C@H](O)C=C4C[C@@H](O)CC[C@]4(C)[C@H]3CC[C@]12C (stereo partly drawn) [7α,26-diHC, 7α,26-dihydroxycholesterol] | none of which was found to show significant activity | none of which was found to show significant activity | –
CC(CO)CCC[C@@H](C)[C@H]1CC[C@H]2[C@@H]3[C@H](O)CC4=CC(=O)CC[C@]4(C)[C@H]3CC[C@]12C (stereo partly drawn) [7α,26-diHCO, 7α,26-dihydroxycholest-4-en-3-one] | none of which was found to show significant activity | none of which was found to show significant activity | –
CC(C)CCC[C@@H](C)[C@H]1CC[C@H]2[C@@H]3[C@H](O)CC4=CC(=O)CC[C@]4(C)[C@H]3CC[C@]12C [7α-HCO, 7α-Hydroxycholest-4-en-3-one] | None of these compounds showed significant activity | – | –
CC(CCC[C@@H](C)[C@H]1CC[C@H]2[C@@H]3[C@H](O)CC4=CC(=O)CC[C@]4(C)[C@H]3CC[C@]12C)C(=O)O (stereo partly drawn) [7αH,3O-CA, 7α-hydroxy-3-oxocholest-4-en-26-oic acid] | none of which was found to show significant activity | none of which was found to show significant activity | Islet-GFP expression (Islet-1): failed to regulate Islet-GFP expression
CC(CCC[C@@H](C)[C@H]1CC[C@H]2[C@@H]3[C@@H](O)CC4=CC(=O)CC[C@]4(C)[C@H]3CC[C@]12C)C(=O)O (stereo partly drawn) [7βH,3O-CA, 7β-hydroxy-3-oxocholest-4-en-26-oic acid] | none of which was found to show significant activity | none of which was found to show significant activity | –
CC(C)CC[C@@H](O)[C@@H](C)[C@H]1CC[C@H]2[C@@H]3CC=C4C[C@@H](O)CC[C@]4(C)[C@H]3CC[C@]12C [22R-HC, 22R-hydroxycholesterol, reference compound] | – | – | Lxr luciferase activity with addition of the Lxr antagonist GGPP (Lxrα; 10 μM metabolite + 10 μM GGPP): similarly blocked; Number of Islet1+ cells [1]: does not show an effect towards Islet1+ cells
CC(C)[C@@H](O)CC[C@@H](C)[C@H]1CC[C@H]2[C@@H]3CC=C4C[C@@H](O)CC[C@]4(C)[C@H]3CC[C@]12C [24S-HC, cholest-5-ene-3β,24S-diol] | activate Lxr | activate Lxr | –
C[C@@H](CO)CCC[C@@H](C)[C@H]1CC[C@H]2[C@@H]3CC=C4C[C@@H](O)CC[C@]4(C)[C@H]3CC[C@]12C [26-HC, cholest-(25R)-5-en-3β,26-diol] | had no a significant effect | had no a significant effect | Number of Islet1+ cells [1]: no effect on the number of Islet1+ cells
C[C@H](CCC(=O)O)[C@H]1CC[C@H]2[C@@H]3[C@H](O)C[C@@H]4C[C@H](O)CC[C@]4(C)[C@H]3CC[C@]12C [CDCA, chenodeoxycholic acid, reference compound] | – | – | Toxic effect on survival of the fish (zebrafish embryos): had a deleterious toxic effect which impaired the survival of the fish
CC(C)CCC[C@@H](C)[C@H]1CC[C@H]2[C@@H]3CCC4=CC(=O)CC[C@]4(C)[C@H]3CC[C@]12C [cholest-4-en-3-one] | None of these compounds showed significant activity | – | –
CC(C)CCC[C@@H](C)[C@H]1CC[C@H]2[C@@H]3C=CC4=CC(=O)CC[C@]4(C)[C@H]3CC[C@]12C [cholesta-4,6-dien-3-one] | None of these compounds showed significant activity | – | –
